# Source: US20260000763A1, “Methods of Manufacturing Therapeutic Cells” (The Board of Trustees of the Leland Stanford Junior …, priority 2022, published 2026)
# Test system: HA-INO-CAR T cells
# Test: Ciclopirox treatment of inosine-cultured HA-CAR T cells, memory subsets by flow cytometry
# Type: cell-based, human
# Conditions: 20 μM CPX for 24 h, day 16, CD8+ inosine-cultured HA-CAR T cells
# Source text: Concatenated samples from n=3 donors. […] (Left) Dot plots of representative donor shown.
smiles,measurement,value
"Cc1cc(C2CCCCC2)n(O)c(=O)c1 [CPX, ciclopirox]",frequency of central memory-like cells,striking decrease
